{
  "source": "patent US20240358692A1",
  "about": "“TREATMENT OF SCLERODERMA” (Aisa Pharma, Inc., priority 2023, published 2024)",
  "origin": "cited, not measured here",
  "details": "oral dosing; cited from earlier work",
  "data": [
    {"smiles": "CCOC(=O)C1=C(COCCN)NC(C)=C(C(=O)OC)C1c1ccccc1Cl", "note": "(stereo not shown) [amlodipine]", "values": [
      {"measurement": "time to achieve maximal plasma concentrations (Tmax)", "value": 10, "unit": "h"}
    ]}
  ]
}
